The results in this text go back to patent publication US12391679B2, “Benzamide-substituted bicyclic imidazo- and pyrazolo-fused -pyridine, -pyrimide, and -pyridazine compounds for treatment of inflammatory diseases” (ONCO3R Therapeutics BV, priority 2019, dated 2025).

One test deals with T1, SIK1 (Homo sapiens, UniProt P57059).
T1 construct: purchased Carna Biosciences 02-131
Briefly: ADP-Glo kinase assay, SIK1. It counts as biochemical. The method in brief:
(§1)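 Luminescent ADP-formation read-out: enzyme–substrate mix + ATP, 120 min RT; ATP depletion 40 min RT; ADP→ATP conversion with luciferase/luciferin 30 min RT. Controls: 1% DMSO (negative), 10 μM staurosporine final (positive).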

The target of the next test is T2, SIK2 (Homo sapiens, UniProt Q9H0K1).
T2 construct: purchased ThermoFisher Scientific PV4792
The experiment in a line: ADP-Glo kinase assay, SIK2. Type of test: biochemical. The method in brief: as §1

Another test deals with T3, SIK3 (Homo sapiens, UniProt Q9Y2K2).
T3 construct: purchased SignalChem S12-11G-100
Briefly: ADP-Glo kinase assay, SIK3. Type of test: biochemical. The method in brief: as §1

The subject of test [1] is LPS triggered IL-10 secretion in monocytes. Briefly: Monocytes assay: LPS-triggered IL-10 (ELISA). Type of test: cell-based, human. The note with it: LPS-triggered IL-10 induction, median maximal fold change vs LPS only; for maximal fold induction: Homo sapiens, Monocyte, read-out: IL-10 FCmax median. The method, then: This assay evaluates illustrative compounds of the invention for their inhibition of LPS-induced TNFα and LPS triggered IL-10 secretion in monocytes.
PBMCs are isolated from human blood samples (buffycoats). The buffy coat is aseptically transferred into a 50 mL Falcon tube, and diluted 1/2 in PBS. Falcon tubes are filled with 20 mL Lymphoprep™, on top of which 25 mL of the buffy coat is carefully added, tubes are centrifuged for 35 min at 400 g in temperature controlled centrifuge, without brake, at 25° C. PBMCs are aspirated from the white interface layer between sample and Lymphoprep™. PBMCs are washed five times in PBS.
PBMCs are centrifuged at 300×g for 10 min and resuspended at a density of 1.0*10^7 cells/80 μL Miltenyi buffer (PBS, pH 7.4, 1% FBS, 2 mM EDTA).
Starting from this point of the protocol all steps are performed on ice. 20 μL of CD14+ micro-beads are added per 1.0*10^7 cells, the tube is mixed and incubated for 15 min in the fridge at 4° C. Cell suspension volume is adjusted to total volume of 100 mL using Miltenyi buffer, mixed gently and subsequently centrifuged for 10 min at 300×g. Supernatant is discarded and cell pellet is resuspended in 12 mL of Miltenyi buffer.
Four LS columns are placed in the MACS Separator (magnet) from Miltenyi Biotec, and are prewet by rinsing with 3 mL of MACS buffer per column. Three mL of cell suspension is added onto the column (max 1*10^8 of labelled cells/column), and columns are subsequently washed 3 times with 3 mL of Miltenyi buffer.
The columns are removed from the magnets, and 5 mL of Miltenyi buffer are added to the column to flush out the CD14+ fraction by pushing the plunger into the column. The flushed fractions are collected in a fresh 50 mL Falcon and volume is adjusted to 30 mL using Miltenyi buffer, cells are centrifuged for 10 min at 300×g. The obtained cell pellet is resuspended in 10 mL RPMI w/o FBS, and cell density is determined using a hematologic analyser (Sysmex XS-500i).
A compound dilution plate is made in 100% DMSO by 3-fold dilution of 10 mM stock solution. An intermediate dilution plate (10× final concentration) is made by diluting the compound dilution plate 50-fold in RPMI medium.
10 μL of the 10× final concentration compound is added to the cells and incubated for 1 h at 37° C. before addition of trigger. No trigger conditions/trigger conditions are spiked with equal final DMSO concentrations of 0.2% DMSO. 10 μL of 10×LPS (final conc. 200 ng/mL) solution are added to all wells except for the ‘no trigger wells’ where 10 μL medium is added. Supernatant is collected after 4 h of LPS triggering.
A Lumitrac 600 Greiner 384-well plate is coated with 40 μL of capture antibody (final concentration of 1 μg/mL in 1×PBS) and stored overnight at 4° C. The next day the plate is washed three times with PBST (PBS+0.05% Tween20) and once with PBS followed by the addition of 100 μL of blocking buffer (1% BSA-5% Sucrose) and plates are sealed and incubated for at least 4 h at RT. After washing the plate once with PBST and once with PBS, 40 μL of standard or sample are added (IL-10 standard curve is prepared using a 1/2 serial dilution starting from 2000 pg/mL; dilutions are made in dilution buffer (PBS+1% BSA)). […] Plates are washed twice with PBST, and once with PBS, whereafter 35 μL of Strep-HRP conjugate (0.5 μg/mL final concentration diluted in dilution buffer) is added. Plates are incubated in the dark, at RT for at least 45 min but no longer than 1 h. Plates are washed twice with PBST, and once with PBS. Thereafter, 50 μL of luminol substrate is added to each well (prepared according to manufacturer's instructions), and incubated for 5 min at RT protected from light.
To quantify these increases, fold changes (FC) compared to ‘LPS only’ are calculated for each concentration tested and the maximal FC is calculated (IL-10 FCmax): […]

T2 sequence (Q9H0K1 whole entry): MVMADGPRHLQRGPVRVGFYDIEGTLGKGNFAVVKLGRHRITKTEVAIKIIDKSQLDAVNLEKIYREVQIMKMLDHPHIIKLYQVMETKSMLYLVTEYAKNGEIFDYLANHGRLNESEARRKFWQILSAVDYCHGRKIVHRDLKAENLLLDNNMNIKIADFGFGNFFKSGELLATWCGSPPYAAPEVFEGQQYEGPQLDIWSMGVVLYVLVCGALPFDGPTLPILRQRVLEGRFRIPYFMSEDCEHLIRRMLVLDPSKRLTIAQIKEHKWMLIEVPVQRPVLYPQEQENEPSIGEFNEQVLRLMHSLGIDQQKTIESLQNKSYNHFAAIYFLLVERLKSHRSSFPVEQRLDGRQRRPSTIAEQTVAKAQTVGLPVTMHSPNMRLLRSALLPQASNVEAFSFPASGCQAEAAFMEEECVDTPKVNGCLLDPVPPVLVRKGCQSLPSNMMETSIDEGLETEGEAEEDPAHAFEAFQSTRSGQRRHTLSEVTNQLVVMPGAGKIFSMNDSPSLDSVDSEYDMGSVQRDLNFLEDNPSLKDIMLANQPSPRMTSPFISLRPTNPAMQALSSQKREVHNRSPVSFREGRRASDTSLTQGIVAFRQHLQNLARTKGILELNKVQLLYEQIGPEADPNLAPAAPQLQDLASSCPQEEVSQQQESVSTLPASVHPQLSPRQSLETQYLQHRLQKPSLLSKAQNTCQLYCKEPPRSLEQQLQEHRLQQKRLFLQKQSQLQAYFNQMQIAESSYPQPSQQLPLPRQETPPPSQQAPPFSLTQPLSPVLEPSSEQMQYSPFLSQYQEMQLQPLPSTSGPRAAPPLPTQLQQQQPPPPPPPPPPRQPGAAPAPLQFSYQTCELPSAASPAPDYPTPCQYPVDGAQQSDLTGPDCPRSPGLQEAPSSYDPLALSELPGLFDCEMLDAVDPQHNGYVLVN
T3 sequence (Q9Y2K2 59-365 limits assumed): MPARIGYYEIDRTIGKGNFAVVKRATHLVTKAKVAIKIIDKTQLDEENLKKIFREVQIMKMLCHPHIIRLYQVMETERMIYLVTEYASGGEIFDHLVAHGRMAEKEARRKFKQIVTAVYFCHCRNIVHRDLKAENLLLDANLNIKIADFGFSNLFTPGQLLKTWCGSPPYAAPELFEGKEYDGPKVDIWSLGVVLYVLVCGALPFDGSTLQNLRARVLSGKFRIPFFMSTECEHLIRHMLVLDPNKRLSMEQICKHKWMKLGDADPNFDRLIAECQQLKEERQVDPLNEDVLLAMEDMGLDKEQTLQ
T1 sequence (P57059 whole entry): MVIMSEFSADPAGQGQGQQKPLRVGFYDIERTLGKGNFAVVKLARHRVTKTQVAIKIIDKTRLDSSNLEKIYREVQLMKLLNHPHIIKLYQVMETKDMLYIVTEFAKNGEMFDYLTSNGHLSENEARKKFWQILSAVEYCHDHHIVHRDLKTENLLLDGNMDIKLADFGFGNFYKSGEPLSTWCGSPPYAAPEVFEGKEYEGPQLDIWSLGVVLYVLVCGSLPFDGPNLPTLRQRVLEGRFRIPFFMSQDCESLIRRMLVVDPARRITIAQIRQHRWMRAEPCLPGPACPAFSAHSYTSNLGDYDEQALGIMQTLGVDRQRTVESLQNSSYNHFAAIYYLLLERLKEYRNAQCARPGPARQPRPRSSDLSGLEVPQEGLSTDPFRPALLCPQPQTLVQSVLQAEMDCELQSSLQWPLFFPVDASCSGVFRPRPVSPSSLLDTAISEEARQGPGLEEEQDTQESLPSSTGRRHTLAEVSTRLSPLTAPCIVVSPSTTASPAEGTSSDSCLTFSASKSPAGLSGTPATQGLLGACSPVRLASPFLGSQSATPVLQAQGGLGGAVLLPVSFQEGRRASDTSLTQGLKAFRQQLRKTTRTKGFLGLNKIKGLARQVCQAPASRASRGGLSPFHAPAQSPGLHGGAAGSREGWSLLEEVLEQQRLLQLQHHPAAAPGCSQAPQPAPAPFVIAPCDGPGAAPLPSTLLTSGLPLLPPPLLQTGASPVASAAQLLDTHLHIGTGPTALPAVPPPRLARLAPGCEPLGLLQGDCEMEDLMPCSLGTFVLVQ

Consider `COc1cc(-c2cnc3cc(C4(C#N)COC4)ccn23)cc(OC(F)F)c1C(=O)NC1CC1` [Cpd 117, 4-[7-(3-cyanooxetan-3-yl)imidazo[1,2-a]pyridin-3-yl]-N-cyclopropyl-2-(difluoromethoxy)-6-methoxy-benzamide], for which the IC50 was > 500 nM against SIK1, > 500 nM against SIK2 and 0.01 to 10 nM against SIK3. Also, in test [1], the maximal fold induction lay within 1.5 to 4.5.

In the case of `COc1cc(-c2cnc3cc(C4(O)CCC4)ccn23)cc(OC(F)F)c1C(=O)N[C@@H]1C[C@@H]1F` [Cpd 205, 2-(difluoromethoxy)-N-[(1R,2S)-2-fluorocyclopropyl]-4-[7-(1-hydroxycyclobutyl)imidazo[1,2-a]pyridin-3-yl]-6-methoxy-benzamide], the results for the half-maximal inhibitory concentration (IC50) against SIK1, on SIK2 and against SIK3 were > 500 nM, 100 to 500 nM and 0.01 to 10 nM, respectively. In test [1], the maximal fold induction was in the range of 1.5 to 4.5.

As for `COc1cc(-c2cnc3cc(C(C)(C)C(C)O)ccn23)cc(OC(F)F)c1C(=O)NC1CC1` (stereo not drawn) [Cpd 172, N-cyclopropyl-2-(difluoromethoxy)-4-[7-(2-hydroxy-1,1-dimethyl-propyl)imidazo[1,2-a]pyridin-3-yl]-6-methoxy-benzamide], the figures for the IC50 on SIK1, against SIK2 and against SIK3 were > 500 nM, > 500 nM and 10 to 100 nM, respectively. Also, in test [1], the maximal fold induction was < 1.5.

Regarding `COc1cc(-c2cnc3cc([C@@](C)(C#N)CO)ccn23)cc(OC(F)F)c1C(=O)NC1CC1` (single isomer, unassigned) [Cpd 189, 4-[7-(1-cyano-2-hydroxy-1-methyl-ethyl)imidazo[1,2-a]pyridin-3-yl]-N-cyclopropyl-2-(difluoromethoxy)-6-methoxy-benzamide], the figures for the IC50 on SIK1, at SIK2 and against SIK3 were > 500 nM, > 500 nM and 10 to 100 nM, respectively. The maximal fold induction in test [1] is < 1.5.

`COc1cc(-c2cnc3cc(C4(O)CCC4)ccn23)cc(OC(F)F)c1C(=O)NC1CC1` [Cpd 173, N-cyclopropyl-2-(difluoromethoxy)-4-[7-(1-hydroxycyclobutyl)imidazo[1,2-a]pyridin-3-yl]-6-methoxy-benzamide]: the IC50 is > 500 nM at SIK1, 100 to 500 nM against SIK2 and 10 to 100 nM on SIK3. Further, the maximal fold induction in test [1] is 1.5 to 4.5.

Regarding `[2H]C([2H])([2H])C(C#N)(c1ccc2c(-c3cc(OC)c(C(=O)N[C@@H]4C[C@@H]4F)c(OC(F)F)c3)cnn2c1)C([2H])([2H])[2H]` [Cpd 275, 4-[6-[1-cyano-2,2,2-trideuterio-1-(trideuteriomethyl)ethyl]pyrazolo[1,5-a]pyridin-3-yl]-2-(difluoromethoxy)-N-[(1R,2S)-2-fluorocyclopropyl]-6-methoxy-benzamide], the maximal fold induction in test [1] is 1.5 to 4.5.

As to `COc1cc(-c2cnn3cc(C(C)(C)C#N)ccc23)cc(OC(F)F)c1C(=O)N[C@@H]1C[C@@H]1F` [Cpd 219, 4-[6-(1-cyano-1-methyl-ethyl)pyrazolo[1,5-a]pyridin-3-yl]-2-(difluoromethoxy)-N-[(1R,2S)-2-fluorocyclopropyl]-6-methoxy-benzamide], in test [1], the maximal fold induction was < 1.5.

Turning to `COc1cc(-c2cnn3cc(C(C)(C)C#N)ccc23)cc(OC(F)F)c1C(=O)N[C@@H]1C[C@H]1F` (single isomer, unassigned) [Cpd 258, 4-[6-(1-cyano-1-methyl-ethyl)pyrazolo[1,5-a]pyridin-3-yl]-2-(difluoromethoxy)-N-(2-fluorocyclopropyl)-6-methoxy-benzamide], the “IL-10 FCmax median” value in test [1] is listed as “+ (+ ≤1.5)”.

With `COc1cc(-c2cnn3cc(C(C)(C)C#N)ccc23)cc(OC(F)F)c1C(=O)N[C@@H]1C[C@H]1F` (single isomer, unassigned) [Cpd 257, 4-[6-(1-cyano-1-methyl-ethyl)pyrazolo[1,5-a]pyridin-3-yl]-2-(difluoromethoxy)-N-(2-fluorocyclopropyl)-6-methoxy-benzamide], in test [1], the maximal fold induction lay within 1.5 to 4.5.
